# Earlier results, collected in paper PMC12648288, “Drastic Impact of Donor Substituents on Xanthenes in the PDT of Glioblastoma” (JACS Au, 2025).
# Where two headings read alike, the source gives them in different places. No end group written: not given here. TPC = chlorin-type photosensitizer; Ahx = NCCCCCC(=O)O
# Columns and labels:
# [1] = cited from earlier work
# T98G = conditions: ref 28 (SI list); cited from earlier work
# U87MG = conditions: cited from earlier work; for IC50: 32 (SI list)
# SNB-19 = test system: SNB-19; set-up: method as in ref 11 (SI list); conditions: ref 11 (SI list); cited from earlier work
# F98 = conditions: 31 (SI list); cited from earlier work
# [2] = in MeOH, as fraction; cited from earlier work
# HUVEC = test system: HUVEC; set-up: method as in ref 16 (SI list); conditions: ref 16 (SI list); cited from earlier work
# DBTRG-05 = test system: DBTRG-05; set-up: method as in ref 29 (SI list); conditions: ref 29 (SI list); cited from earlier work
# A172 = test system: A172; set-up: method as in ref 29 (SI list); conditions: ref 29 (SI list); cited from earlier work
# [3] = measured in PBS (pH 7.4), 22-32 (SI list)
compound,measurement,setting,value
CN(C)c1ccc2cc3ccc(N(C)C)cc3nc2c1 [Acridine Orange],Abs (nm),[1]; [3],487 nm
COc1c(CC(C)O)c2c3c(CC(C)O)c(OC)c(=O)c4c(O)cc5c(c6c(cc(O)c(c1=O)c62)OCO5)c43 (centres unmarked) [Cercosporin],Abs (nm),[1]; [3],473 nm
same,LD50,T98G,4 µM
same,LD50,U87MG; ref 28 (SI list),4 µM
"COc1cc(/C=C/C(=O)CC(=O)/C=C/c2ccc(O)c(OC)c2)ccc1O [Curcumin (CUR), Curcumin]",IC50,SNB-19,5.74 µM
CCCCCCOC(C)c1c(C)c2cc3nc(c4c5[nH]c(cc6nc(cc1[nH]2)C(C)=C6CC)c(C)c5C(=O)C4)C(CCC(=O)Nc1ccc(SC2=C(C=CC4=[N+](CCCCS(=O)(=O)[O-])c5ccc6ccccc6c5C4(C)C)CCCC2=CC=C2N(CCCCS(=O)(=O)[O-])c4ccc5ccccc5c4C2(C)C)cc1)C3C.[Na+] (centres unmarked) [HPPH-CD],Abs (nm),[1]; [3],848 nm
same,IC50,U87MG,1.63 µM
"C=Cc1c(C)c2cc3nc(cc4nc(cc5[nH]c(cc1[nH]2)c(C)c5C(C)OC(C)c1c(C)c2cc5[nH]c(cc6nc(cc7nc(cc1[nH]2)C(C)=C7CCC(=O)[O-])C(CCC(=O)[O-])=C6C)c(C)c5C=C)C(C)=C4CCC(=O)[O-])C(CCC(=O)[O-])=C3C.[Na+].[Na+].[Na+].[Na+] (centres unmarked) [Sinoporphyrin sodium (DVDMS), Sinoporphyrin sodium]",Abs (nm),[1]; [3],631 nm
Cc1ccnc(-c2cc(C)ccn2)c1.Cc1ccnc(-c2cc(C)ccn2)c1.[Cl-].[Cl-].[Ru+2].c1csc(-c2ccc(-c3ccc(-c4nc5c6cccnc6c6ncccc6c5[nH]4)s3)s2)c1 [TLD1433],Abs (nm),[1]; [3],416 nm
same,IC50,F98,2.81 µM
same,IC50,U87MG,0.051 µM
[Zn+2].c1ccc2c(c1)-c1nc-2nc2[n-]c(nc3nc([n-]c4nc(n1)-c1ccccc1-4)-c1ccccc1-3)c1ccccc21 [ZnPc],Abs (nm),[1]; [3],645 nm
CN(C)c1ccc2nc3ccc(=[N+](C)C)cc-3sc2c1 [methylene blue],ΦF of reference standard,[2],0.23
Benzoporphyrin derivative [Benzoporphyrin derivative (BPD)],Abs (nm),[1]; [3],692 nm
same,IC50,U87MG,13.1 µM
TPC–Ahx–ATWLPPR: chlorin-type photosensitizer conjugated to neuropilin-1 targeting peptide (SI ref 16) ({TPC-Ahx}-ATWLPPR),Abs (nm),"[1]; EtOH, 16 (SI list)",420 nm
same,IC50,HUVEC,171 µM
Tetrahydroporphyrin-Tetratosylat [THPTS],IC30,DBTRG-05,4 µM
same,Abs (nm),[1]; [3],760 nm
same,IC30,A172,10 µM
same,IC30,U87MG; ref 29 (SI list),2 µM
[(Ph2phen)2Os(dpp)]2+,Abs (nm),[1]; [3],650 nm
same,IC50,F98,86.1 µM
